Experimental findings from US20260241307A1, “PROCESS FOR MAKING DRUG CRYSTALS OF DESIRED SIZE DISTRIBUTION AND MORPHOLOGY” (EUPRAXIA PHARMACEUTICALS INC., priority 2019, published 2026) are described below.

Some results are limits rather than exact numbers.

What all share (assay type): physicochemical
The nature of series [1]: Laser diffraction particle size analysis of recrystallized crystals. The note with it: large scale batch, recrystallized from methanol, slow evaporation, isotherm 25° C. An excerpt: As used herein, laser diffraction is the methodology used for measuring and analyzing particle size and size distribution of a sample or collection of particles (e.g., the recrystallized columnar crystals and the sized crystals). More specifically, a D10 value refers to the diameter at which 10% of the sample's mass is comprised of particles with a diameter less than this value. Likewise, a D50 value is the diameter of the particle that 50% of a sample's mass is smaller than and 50% of a sample's mass is larger than the value.
In histogram, D10, D50 and D90 are intercepts for 10%, 50% and 90% of the cumulative mass in the particles size. Since the density is the same for all particles, then the mass and volume are linearly related, thus the % remains the same. The method used also reports the cumulative distribution in volume.
Different large-scale batches were run to show the reproducibility of the recrystallization method. Laser diffraction results of particle size analysis for four large scale batches are below:
(§1) The laser diffraction method assumes an equivalent sphere when calculating the results. The aspect ratio in the imaging analysis show a range of aspect ratio from 3 to 50, while a majority of aspect ratios are in the range of 5-20.

Series [2] can be described thus: Imaging analysis of aspect ratio.
Source text: as §1

The nature of series [3]: Particle size distribution by Malvern particle size analyzer (sized crystals). The conditions noted are these: after milling in rotor/stator homogenizer and sieving. An excerpt:
The milled crystals were then sieved through two separate sieves to eliminate fines or remnant large crystals. […] As shown, the drug crystal obtained have relatively narrow distribution and the minimal amount of fine material and absence of very fine material (no particles below 9 μm).

In series [1], `CCC(=O)O[C@]1(C(=O)SCF)[C@H](C)C[C@H]2[C@@H]3C[C@H](F)C4=CC(=O)C=C[C@]4(C)[C@@]3(F)[C@@H](O)C[C@@]21C` [Batch 1, fluticasone propionate] gave a D10 of 119 µm, a D50 of 365 µm and a D90 of 876 µm.
In the case of `CCC(=O)O[C@]1(C(=O)SCF)[C@H](C)C[C@H]2[C@@H]3C[C@H](F)C4=CC(=O)C=C[C@]4(C)[C@@]3(F)[C@@H](O)C[C@@]21C` [Batch 2, fluticasone propionate], in series [1], the D10 came to 97 µm, the D50 was 323 µm and the D90 stood at 838 µm.
`CCC(=O)O[C@]1(C(=O)SCF)[C@H](C)C[C@H]2[C@@H]3C[C@H](F)C4=CC(=O)C=C[C@]4(C)[C@@]3(F)[C@@H](O)C[C@@]21C` [Batch 3, fluticasone propionate]: in series [1], the D10 was determined as 72 µm, the D50 came to 253 µm and the D90 is 798 µm.
In series [1], `CCC(=O)O[C@]1(C(=O)SCF)[C@H](C)C[C@H]2[C@@H]3C[C@H](F)C4=CC(=O)C=C[C@]4(C)[C@@]3(F)[C@@H](O)C[C@@]21C` [Batch 4, fluticasone propionate] displayed a D10 of 82 µm, a D50 of 288 µm and a D90 of 820 µm.
In the case of `CCC(=O)O[C@]1(C(=O)SCF)[C@H](C)C[C@H]2[C@@H]3C[C@H](F)C4=CC(=O)C=C[C@]4(C)[C@@]3(F)[C@@H](O)C[C@@]21C` [recrystallized fluticasone propionate, fluticasone propionate], the “aspect ratio, majority” value in series [2] (majority of aspect ratios) is on record as 5-20. In series [2] (whole range), the “aspect ratio, range” value was in the range of 3 to 50.
Turning to `CCC(=O)O[C@]1(C(=O)SCF)[C@H](C)C[C@H]2[C@@H]3C[C@H](F)C4=CC(=O)C=C[C@]4(C)[C@@]3(F)[C@@H](O)C[C@@]21C` [resized drug crystals, fluticasone propionate], the “smallest particle size (no particles below)” value in series [3] is reported as not below 9 μm.
